Test systems include ACHN; COLO 205; EKVX; HCT-15; Hs-578T; IGROV-1; KM12; MDA-MB-231; MDA-MB-435; Malme-3M; NCI-H23; RPMI-8226; RXF 393; SF-295; SF-539; SK-MEL-5; SK-OV-3; SR; HCC 2998; K562.
Common to all, as to assay: NCI-60 cell line screen, 48 h

Structures are written as SMILES.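 These data come from cells grown in 96-well plates and exposed to compound for 48 hours at five concentrations. The concentration for 50% growth inhibition is given as GI50.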 The source made the active and inactive calls. Cut-off read from the data, not from the text of the source: active = GI50 up to about 1.1 µM and inactive = higher. Where only a bound is given, the exact number is not on record here.

These results are taken from ChEMBL document CHEMBL1201862, “PubChem BioAssay data set” (2004).

Regarding `CN(CC(=O)O)Cc1c(O)c(Cl)cc(Cl)c1Cl`, the GI50 in the assay with ACHN was 36.5 µM (inactive); in the assay on COLO 205, 34.6 µM (inactive); in the assay with EKVX, 24.2 µM (inactive); with HCT-15, 21.8 µM; with Hs-578T it was > 100 µM (inactive); in the assay with IGROV-1, 48.1 µM (inactive). For the same compound, the GI50 in the assay on KM12 is 31.2 µM (inactive); in the assay with MDA-MB-231, 45.2 µM (inactive); with MDA-MB-435, 74.8 µM (inactive); in the assay with Malme-3M it was 27.4 µM (inactive); with NCI-H23, 95.3 µM (inactive); in the assay with RPMI-8226, 37.4 µM (inactive). Moreover, the GI50 in the assay with RXF 393 was 76.4 µM (inactive); in the assay with SF-295, 64.9 µM (inactive); in the assay on SF-539, 22.4 µM (inactive); in the assay with SK-MEL-5, 24.7 µM (inactive); in the assay with SK-OV-3 it was > 100 µM (inactive); in the assay with SR it was 5.55 µM (inactive).

As for `O=C(/C=C/c1ccccc1)c1cc(Br)ccc1O`, the GI50 with ACHN is 15.1 µM (inactive); in the assay with COLO 205 it was 17.3 µM (inactive); with EKVX, 13.8 µM (inactive); in the assay on HCC 2998, 17.5 µM (inactive); in the assay on HCT-15 it was 14.1 µM; in the assay with Hs-578T, 21.2 µM (inactive). Further, the GI50 in the assay on IGROV-1 was 11.5 µM (inactive); in the assay on K562 it was 4.28 µM (inactive); in the assay with KM12 it was 12 µM (inactive); in the assay with MDA-MB-231, 18 µM (inactive); in the assay on MDA-MB-435, 15.6 µM (inactive); with NCI-H23 it was 16 µM (inactive). Also, the GI50 in the assay on RPMI-8226 is 6.84 µM (inactive); in the assay on RXF 393, 18.8 µM (inactive); in the assay with SF-295 it was 16.9 µM (inactive); in the assay on SK-MEL-5, 15.3 µM (inactive); in the assay on SK-OV-3, 20 µM (inactive); in the assay on SR, 2.09 µM (inactive).

For the compound `O=C(NCc1ccccc1)c1cc2ccccc2o/c1=N\c1cccc(C(F)(F)F)c1`, the GI50 is 46.3 µM (inactive) in the assay with ACHN; 29.3 µM (inactive) in the assay with COLO 205; > 100 µM (inactive) in the assay with EKVX; 21.2 µM (inactive) in the assay with HCC 2998; 36.9 µM with HCT-15; > 100 µM (inactive) in the assay with Hs-578T. Moreover, the GI50 with IGROV-1 is 81.3 µM (inactive); with K562 it was 36.5 µM (inactive); in the assay on KM12, 48.6 µM (inactive); in the assay with MDA-MB-231, 75.7 µM (inactive); in the assay with MDA-MB-435 it was 46 µM (inactive); with Malme-3M it was 48.1 µM (inactive). For the same compound, the GI50 is 57.7 µM (inactive) with NCI-H23; 30.3 µM (inactive) in the assay on RPMI-8226; 78 µM (inactive) in the assay on RXF 393; 51.3 µM (inactive) in the assay on SF-295; 26.4 µM (inactive) with SK-MEL-5; > 100 µM (inactive) in the assay with SK-OV-3. In addition, the GI50 with SR is 21.1 µM (inactive).

Take `O=C(N/N=C/C=C/c1ccccc1)c1ccccc1Nc1ccccc1C(=O)N/N=C/C=C/c1ccccc1`: the GI50 was > 100 µM (inactive) in the assay on ACHN; > 100 µM (inactive) in the assay on COLO 205; > 100 µM (inactive) in the assay on EKVX; > 100 µM (inactive) in the assay on HCC 2998; greater than 100 µM in the assay with HCT-15; 41.1 µM (inactive) with Hs-578T. Also, the GI50 in the assay with IGROV-1 was > 100 µM (inactive); in the assay on K562, > 100 µM (inactive); with KM12 it was > 100 µM (inactive); with MDA-MB-231 it was 49.5 µM (inactive); in the assay on MDA-MB-435, > 100 µM (inactive); in the assay with Malme-3M it was > 100 µM (inactive). Further, the GI50 was > 100 µM (inactive) in the assay with NCI-H23; > 100 µM (inactive) in the assay with RPMI-8226; 20.5 µM (inactive) with RXF 393; 27.5 µM (inactive) with SF-295; > 100 µM (inactive) in the assay on SK-MEL-5; > 100 µM (inactive) in the assay with SK-OV-3. Moreover, in the assay with SR, the GI50 is 12.8 µM (inactive).

With `O=C1c2cc([N+](=O)[O-])cnc2S(=O)(=O)N1c1ccc(Oc2ccccc2)cc1`, the GI50 with ACHN is > 100 µM (inactive); in the assay on COLO 205, > 100 µM (inactive); in the assay on EKVX it was > 100 µM (inactive); in the assay with HCC 2998 it was > 100 µM (inactive); with HCT-15, greater than 100 µM; with Hs-578T, > 100 µM (inactive). Moreover, the GI50 with IGROV-1, in the assay on K562, in the assay on KM12, with MDA-MB-231, in the assay with MDA-MB-435 and with Malme-3M was > 100 µM (inactive) throughout. Further, the GI50 is > 100 µM (inactive) in the assay with NCI-H23; > 100 µM (inactive) in the assay with RPMI-8226; 34.2 µM (inactive) in the assay with RXF 393; > 100 µM (inactive) with SF-295; > 100 µM (inactive) in the assay on SK-OV-3; 57 µM (inactive) in the assay with SR.

In the case of `Cc1ccc(CSC(=N)Nc2ccccc2)cc1C`, the GI50 was 33.3 µM (inactive) with ACHN; 16.3 µM (inactive) in the assay on COLO 205; 26.4 µM (inactive) in the assay on EKVX; 23.5 µM in the assay on HCT-15; 23.2 µM (inactive) in the assay with Hs-578T; 23.2 µM (inactive) in the assay with IGROV-1. Besides, the GI50 with K562 was 21.2 µM (inactive); with KM12, 19.5 µM (inactive); with MDA-MB-231 it was 16.2 µM (inactive); with MDA-MB-435 it was 15.2 µM (inactive); in the assay on Malme-3M, 17.1 µM (inactive); in the assay on NCI-H23 it was 22.9 µM (inactive). Further, the GI50 in the assay on RPMI-8226 was 22.5 µM (inactive); in the assay with RXF 393, 15.7 µM (inactive); with SF-295, 25 µM (inactive); in the assay with SF-539 it was 22.9 µM (inactive); with SK-MEL-5, 16.1 µM (inactive); in the assay on SK-OV-3 it was 24.8 µM (inactive). The GI50 with SR is 19.5 µM (inactive).

Consider `COc1cc(S(=O)(=O)Nc2nc(-c3ccc(N4C(=O)/C(=C/c5ccccc5)N=C4c4ccccc4)cc3)cs2)ccc1Cl`, for which the GI50 with ACHN was > 100 µM (inactive); in the assay on COLO 205, 40 µM (inactive); with HCT-15, greater than 100 µM; in the assay on Hs-578T, 21 µM (inactive); in the assay with IGROV-1 it was 44.2 µM (inactive); with K562, 41.6 µM (inactive). The GI50 with KM12 is 50.6 µM (inactive); with MDA-MB-231 it was 21.3 µM (inactive); with MDA-MB-435, 46.9 µM (inactive); in the assay on Malme-3M, 30.8 µM (inactive); with NCI-H23, 25.2 µM (inactive); with RXF 393 it was 32.1 µM (inactive). The GI50 in the assay on SF-295 was > 100 µM (inactive); in the assay with SF-539, 41.1 µM (inactive); in the assay with SK-MEL-5 it was 26.9 µM (inactive); in the assay with SK-OV-3, > 100 µM (inactive); with SR it was 36.1 µM (inactive).

With `COc1ccc2oc(=N)c(C(N)=O)cc2c1`, the GI50 with ACHN was 30.3 µM (inactive); in the assay on COLO 205, 49 µM (inactive); in the assay with HCC 2998, 32.7 µM (inactive); in the assay with HCT-15 it was 53.1 µM; in the assay with Hs-578T it was 18.2 µM (inactive); in the assay on IGROV-1 it was 30.5 µM (inactive). Besides, the GI50 with K562 was > 100 µM (inactive); in the assay on KM12, 31.5 µM (inactive); in the assay with MDA-MB-231 it was 66.8 µM (inactive); in the assay on MDA-MB-435, 49.4 µM (inactive); with NCI-H23, 68.2 µM (inactive); in the assay with RPMI-8226, > 100 µM (inactive). The GI50 is > 100 µM (inactive) in the assay on RXF 393; 66.5 µM (inactive) with SF-539; 60.4 µM (inactive) with SK-MEL-5; > 100 µM (inactive) with SK-OV-3; 38.5 µM (inactive) in the assay with SR.

In the case of `O=C1/C(=C/c2ccc(Cl)cc2)N=C(c2ccccc2)N1c1nc2ccccc2s1`, the GI50 is 62.5 µM (inactive) in the assay with ACHN; > 100 µM (inactive) in the assay on EKVX; 42.7 µM (inactive) in the assay with HCC 2998; 47.8 µM in the assay on HCT-15; 20 µM (inactive) with Hs-578T; 34.4 µM (inactive) in the assay with IGROV-1. The GI50 was 26.4 µM (inactive) in the assay on K562; 61.9 µM (inactive) with KM12; 67.8 µM (inactive) in the assay with MDA-MB-231; 53 µM (inactive) in the assay on MDA-MB-435; 30.4 µM (inactive) in the assay on NCI-H23; 39.7 µM (inactive) in the assay on RPMI-8226. Moreover, the GI50 in the assay with RXF 393 is > 100 µM (inactive); in the assay on SF-295 it was 40.4 µM (inactive); with SF-539 it was > 100 µM (inactive); with SK-MEL-5 it was 31.6 µM (inactive); in the assay on SK-OV-3, > 100 µM (inactive); with SR, 0.0537 µM (active).

Take `COC(=O)C1OC(O[C@H]2CC[C@]3(C)[C@H]4CC=C5[C@@H]6CC(C)(C)CC[C@]6(C(=O)OC)[C@H](O)C[C@@]5(C)[C@]4(C)CC[C@H]3C2(C)C)C(O)C(O)C1O` (stereo partly specified): the GI50 in the assay on ACHN is 11.5 µM (inactive); with COLO 205 it was 4.98 µM (inactive); with EKVX, 7.96 µM (inactive); in the assay with HCC 2998, 2.7 µM (inactive); with HCT-15, 10.5 µM; in the assay on Hs-578T, 13.8 µM (inactive). In addition, the GI50 with IGROV-1 is 12.3 µM (inactive); with K562 it was 2.8 µM (inactive); with KM12, 1.67 µM (inactive); with MDA-MB-231 it was 9.33 µM (inactive); in the assay on MDA-MB-435, 13.1 µM (inactive); in the assay with Malme-3M it was 12.8 µM (inactive). Besides, the GI50 is 6.21 µM (inactive) in the assay with NCI-H23; 4.9 µM (inactive) with RPMI-8226; 5.22 µM (inactive) in the assay with RXF 393; 10.4 µM (inactive) in the assay on SF-295; 13.4 µM (inactive) in the assay with SK-MEL-5; 15 µM (inactive) with SK-OV-3. Also, in the assay on SR, the GI50 is 3.42 µM (inactive).

On to `CN(C)CCOc1ccc2[nH]c(C(=O)N3CC(CCl)c4c3cc([N+](=O)[O-])c3ccccc43)cc2c1` (stereo unspecified), for which the GI50 in the assay on ACHN is 1.95 µM (inactive); in the assay on COLO 205, 3.25 µM (inactive); in the assay with EKVX, 3.13 µM (inactive); in the assay with HCT-15 it was 1.86 µM; in the assay with Hs-578T, 3.01 µM (inactive); in the assay with IGROV-1, 2.14 µM (inactive). For the same compound, the GI50 in the assay on K562 is 1.79 µM (inactive); with KM12 it was 1.71 µM (inactive); with MDA-MB-231, 3.23 µM (inactive); in the assay on MDA-MB-435 it was 2 µM (inactive); in the assay with Malme-3M, 1.94 µM (inactive); in the assay with NCI-H23, 2.74 µM (inactive). The GI50 with RPMI-8226 is 2.67 µM (inactive); with RXF 393 it was 1.55 µM (inactive); in the assay on SF-295, 2.51 µM (inactive); with SF-539 it was 1.69 µM (inactive); in the assay with SK-MEL-5 it was 1.7 µM (inactive); with SK-OV-3, 27.3 µM (inactive). In addition, in the assay on SR, the GI50 is 1.72 µM (inactive).
